# Experimental data reported in patent publication US9440938B2, “Sulfonamide derivative having PGD2 receptor antagonistic activity” (SHIONOGI & CO., LTD., priority 2005, dated 2016).
# Like-named read-outs stand apart in the source and are kept apart here.
# Tests used:
# [1] = biological target: T1, DP receptor (Homo sapiens, UniProt Q13258); assay: cAMP assay with washed platelet (DP inhibitory activity in vitro); assay type: cell-based; settings: read-out: IC50 (50% DP-inhibitory concentration in the cAMP assay); washed human platelets, 100 nM PGD2, cAMP by HTRF
# T1 construct: endogenous in cells; host or cells: washed platelets from peripheral blood of a healthy volunteer
# T1 sequence (Q13258 1-359): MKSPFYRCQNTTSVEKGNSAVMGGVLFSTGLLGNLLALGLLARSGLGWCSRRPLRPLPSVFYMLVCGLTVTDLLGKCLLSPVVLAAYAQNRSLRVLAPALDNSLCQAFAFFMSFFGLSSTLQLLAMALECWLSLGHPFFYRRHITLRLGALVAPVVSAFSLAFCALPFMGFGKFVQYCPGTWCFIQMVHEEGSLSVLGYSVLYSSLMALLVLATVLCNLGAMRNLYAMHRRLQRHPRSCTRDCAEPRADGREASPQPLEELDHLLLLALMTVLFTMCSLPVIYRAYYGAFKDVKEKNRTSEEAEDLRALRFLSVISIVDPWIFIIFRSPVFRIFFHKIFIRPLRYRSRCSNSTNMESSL
# Protocol: 1) Preparation of Platelet and a Method of cAMP Assay
# 30 mL of peripheral blood was collected from a healthy volunteer using a syringe containing one ninth amount of 3.8% sodium citrate. After being centrifuged at 180 g for 10 minutes at room temperature, a supernatant was collected and used as Platelet Rich Plasma (PRP). The resulting PRP was washed with wash buffer and centrifuged three times (Washed Platelet: WP) and platelets were counted by a microcell counter. WP was added to a plate in amount of 1.5×10^8/assay and the plate was treated with 3-isobutyl-1-methylxanthin (IBMX; 0.5 mM) for 5 minutes. A reaction was initiated by adding 100 nM of PGD2 5 min after an addition of a test compound. The reaction was terminated with an addition of 1N hydrochloric acid after 2 minutes and the cells were destructed using 12% triton X-100. An amount of cAMP in the supernatant was assayed by Homogeneous Trangient Fluorescence (HTRF)
# [2] = biological target: T1, DP receptor; assay: Receptor binding assay, [3H]-PGD2, platelet membrane; settings: [3H]-PGD2, human platelet membrane
# Protocol: 2) Receptor Binding Assay
# A prepared WP was homogenated and a membrane fraction was collected with high-speed centrifugation. A compound of the present invention or a reference compound A (No. IC-73 in WO 2003/097598) was added to the plate and [^3H]-PGD2 was also added. A platelet membrane, a protein concentration is 2 mg/mL, was added and mixed in the plate, and placed on ice for 2 hours. The reaction solution was transferred to a low protein-adsorptive filter and washed with a wash solution eight times using a cell harvester. After the final washing, water was removed sufficiently, and scintillator was added. DP inhibitory activity was investigated by measuring [^3H] by using Micro Beta.
# [3] = system: OVA asthma model of rat; assay: Test using OVA asthma model of rat (airway hyperresponsiveness, infiltration of inflammatory cells, mucus-secretion); assay type: in vivo, Brown Norway (BN) Rats; settings: po, 72 h
# Protocol: Test Using OVA Asthma Model of Rat
# Brown Norway (BN) Rats were sensitized by i.p. administration of 0.1 mg/mL of ovalbumin (OVA) and 1 mg of aluminum hydroxide gel. A solution of 1% OVA was aerosolized by ultrasonic nebulizer (NE-U17) and the rats were subjected to inhalation exposure of the aerosol for 30 minutes in an exposing chamber 12, 19, 26 and 33 days after the sensitization. One hour before the 4th exposure of the antigen, compounds of the present invention were administered in a dose of 10 mg/kg p.o. once a day for three days consecutively. In a control group, 0.5% of methyl cellulose was administered in place of the compound of the present invention.
# Under pentobarbital anesthesia (80 mg/kg, i.p.), acetylcholine (3.9, 7.8, 15.6, 31.3, 62.5, 125, 250 and 500 μg/kg) was injected to jugular vein of the rats successively from a lower dose at intervals of 5 minutes three days after the fourth exposure to the antigen, and immediate contractile reaction of airways (an increase of insufflation pressure) was measured by a modified method of Konnzett & Ririssler. Inhibition rate of airway hyperresponsiveness against the control group was calculated based on area under the curve (AUC) obtained from concentration-response curve of acetylcholine.
# After the measurement of increased hyperresponsive airway was completed, bronchoalveoli of the rats were washed with 5 mL of saline three times. Total cell number in the washings was counted by a hemacytometer under light microscope, and inhibition rates of infiltration of inflammatory cells against the control group were calculated. Further, mucin in the airway lavage fluid was measured by ELISA method using jacalin, a mucin-binding lectin, and the inhibition rates of mucus-secretion against the control group were calculated.
Structure (SMILES),IC50 [1],Ki [2],other results
COCC#Cc1cc(OCC(=O)O)cc(N2CCN(S(=O)(=O)c3ccc(OC(C)C)cc3)CC2)c1 [II-37],1500 nM,–,–
CC(=O)c1ccc(N2CCN(S(=O)(=O)c3ccc(OC(C)C)cc3)CC2)cc1OCC(=O)O [II-91],1300 nM,–,–
CC(C)Oc1ccc(S(=O)(=O)N2CCN(c3ccc(C(=O)Nc4nc5ccccc5[nH]4)c(OCC(=O)O)c3)CC2)cc1 [II-101],210 nM,22 µM,–
CC(C)Oc1ccc(S(=O)(=O)N2CCN(c3ccc(Cl)c(OCC(=O)O)c3)C(C)C2)cc1 (centres unmarked) [II-44],690 nM,1.6 µM,–
CC(C)Oc1ccc(S(=O)(=O)N2CCN(c3ccc(-c4ncco4)c(OCC(=O)O)c3)CC2)cn1 [II-94],2000 nM,1.7 µM,–
CC(C)Oc1ccc(S(=O)(=O)N2CCN(c3ccc(-c4ccco4)c(OCC(=O)O)c3)CC2)cc1 [II-65],140 nM,16 µM,–
CC(C)NC(=O)c1ccc(N2CCN(S(=O)(=O)c3ccc(OC(C)C)cc3)CC2)cc1OCC(=O)O [II-63],–,–,"inhibition in vivo at 10 mg/kg ([3]; BN rats, 10 mg/kg p.o. once a day for three days, mucin in airway lavage fluid by ELISA against control group, read-out: inhibition rate (%) mucus-secretion): 79%; inhibition in vivo at 10 mg/kg ([3]; BN rats, 10 mg/kg p.o. once a day for three days, total cell number in bronchoalveolar washings against control group, read-out: inhibition rate (%) infiltration of inflammatory cells): 59%; inhibition in vivo at 10 mg/kg ([3]; read-out: inhibition rate (%) airway hyperresponsiveness): 41%"
CC(C)Oc1ccc(S(=O)(=O)N2CCN(c3ccc(NC(=O)c4cccnc4)c(OCC(=O)O)c3)CC2)cc1 [II-48],4600 nM,–,–
CC(C)Oc1ccc(S(=O)(=O)N2CCN(c3ccc(C(=O)NCc4ccco4)c(OCC(=O)O)c3)CC2)cc1 [II-106],1600 nM,19 µM,–
Cc1cnc(-c2ccc(N3CCN(S(=O)(=O)c4ccc(OC(C)C)cc4)CC3)cc2OCC(=O)O)o1 [II-73],1000 nM,1.1 µM,–
CC(C)Oc1ccc(S(=O)(=O)N2CCN(c3ccc(C(=O)NCc4ccccn4)c(OCC(=O)O)c3)CC2)cc1 [II-100],2400 nM,12.8 µM,–
COc1cccc(OC2CCN(S(=O)(=O)c3ccc(OC(C)C)cc3)CC2)c1/C=C/C(=O)O [Compound I-8],2100 nM,–,–
CC(C)Oc1ccc(S(=O)(=O)N2CCN(c3ccc(C(=O)Nc4ccccc4)c(OCC(=O)O)c3)CC2)cc1 [II-62],1100 nM,4.7 µM,–
CC(C)Oc1ccc(S(=O)(=O)N2CCN(c3ccc(Cl)c(CC(=O)O)c3)CC2)cc1 [II-20],4300 nM,–,–
CC(C)Oc1ccc(S(=O)(=O)N2CCC(Oc3ccc(F)cc3CCC(=O)O)CC2)cc1 [Compound I-18],1600 nM,–,–
CCCNC(=O)c1ccc(N2CCN(S(=O)(=O)c3ccc(OC(C)C)cc3)CC2)cc1OCC(=O)O [II-83],2000 nM,20 µM,–
CC(C)NC(=O)Nc1ccc(N2CCN(S(=O)(=O)c3ccc(OC(C)C)cc3)CC2)cc1OCC(=O)O [II-68],17000 nM,–,–
CC(C)Oc1ccc(S(=O)(=O)N2CCN(c3ccc(-c4nncs4)c(OCC(=O)O)c3)CC2)cc1 [II-88],230 nM,1.5 µM,–
CC(C)Oc1ccc(S(=O)(=O)N2CCN(c3ccc(Cl)c(OCC(=O)O)c3)CC2)cc1 [II-10],410 nM,0.65 µM,–
CC(C)Oc1ccc(S(=O)(=O)N2CCN(c3cc(OCC(=O)O)ccc3Cl)CC2)cc1 [II-69],1400 nM,–,–
Cc1nnc(-c2ccc(N3CCN(S(=O)(=O)c4ccc(OC(C)C)cc4)CC3)cc2OCC(=O)O)o1 [II-61],2100 nM,1.4 µM,–
CC(C)Oc1ccc(S(=O)(=O)N2CCN(c3ccc(OCc4ccccc4)c(OCC(=O)O)c3)CC2)cc1 [II-71],4100 nM,–,–
CC(C)Oc1ccc(S(=O)(=O)N2CCC(c3ccc(Cl)c(OCC(=O)O)c3)CC2)cc1 [Compound I-31],160 nM,3.6 µM,–
CC(C)Oc1ccc(S(=O)(=O)N2CCN(c3cc(OCC(=O)O)cc(-c4ccccc4)c3)CC2)cc1 [II-57],1200 nM,–,–

Structure (SMILES),IC50 [1],Ki [2],other results
CC(C)OC(=O)Nc1ccc(N2CCN(S(=O)(=O)c3ccc(OC(C)C)cc3)CC2)cc1OCC(=O)O [II-67],1700 nM,–,–
COc1cccc(OC2CCN(S(=O)(=O)c3ccc(OC(C)C)cc3)CC2)c1CCC(=O)O [Compound I-12],4200 nM,–,–
Cc1ccc(N2CCN(S(=O)(=O)c3ccc(OC(C)C)cc3)CC2)cc1OCC(=O)O [II-8],4600 nM,–,–
CC(C)Oc1ccc(S(=O)(=O)N2CCN(c3cc(F)c(F)c(OCC(=O)O)c3)CC2)cn1 [II-55],3000 nM,–,–
CC(C)Oc1ccc(S(=O)(=O)N2CC=C(c3ccc(Cl)c(OCC(=O)O)c3)CC2)cc1 [Compound I-30],510 nM,–,–
CC(C)Oc1ccc(S(=O)(=O)N2CCN(c3ccc(OCc4ccoc4)c(OCC(=O)O)c3)CC2)cc1 [II-77],3600 nM,–,–
CC(C)Oc1ccc(S(=O)(=O)N2CCN(c3ccc(-c4ccccc4)c(OCC(=O)O)c3)CC2)cc1 [II-53],2300 nM,–,–
CC(C)Oc1ccc(S(=O)(=O)N2CCN(c3ccc(-c4nnco4)c(OCC(=O)O)c3)CC2)cc1 [II-46],790 nM,0.87 µM,–
CC(C)Oc1ccc(S(=O)(=O)N2CCN(c3ccc(Br)c(OCC(=O)O)n3)CC2)cc1 [II-90],590 nM,–,–
CC(C)Oc1ccc(S(=O)(=O)N2CCN(c3ccc(NC(=O)c4ccno4)c(OCC(=O)O)c3)CC2)cc1 [II-58],3500 nM,–,–
Cc1cc(OCC(=O)O)cc(N2CCN(S(=O)(=O)c3ccc(OC(C)C)cc3)CC2)c1 [II-41],3500 nM,–,–
CC(C)Oc1ccc(S(=O)(=O)N2CCN(c3ccc(C(=O)NCc4cccs4)c(OCC(=O)O)c3)CC2)cc1 [II-99],590 nM,11 µM,–
CC(C)Oc1ccc(S(=O)(=O)N2CCC(Oc3ccc(Cl)cc3CCC(=O)O)CC2)cc1 [Compound I-10],2700 nM,30 µM,–
CC(C)Oc1ccc(S(=O)(=O)N2CCN(c3ccc(-c4ncco4)c(OCC(=O)O)c3)CC2)cc1 [II-74],520 nM,0.24 µM,–
CC(C)Oc1ccc(S(=O)(=O)N2CCN(c3ccc(Cl)c(/C=C/C(=O)O)c3)CC2)cc1 [II-18],4900 nM,–,–
CC(C)Oc1ccc(S(=O)(=O)N2CCN(c3ccc(C(=O)Nc4ccn(C)n4)c(OCC(=O)O)c3)CC2)cc1 [II-111],700 nM,36 µM,–
CC(C)Oc1ccc(S(=O)(=O)N2CCN(c3ccc(C(=O)NC4CC4)c(OCC(=O)O)c3)CC2)cc1 [II-89],2100 nM,20 µM,–
CC(C)Oc1ccc(S(=O)(=O)N2CCC(Oc3ccccc3CCC(=O)O)CC2)cc1 [Compound I-11],3000 nM,–,–
CC(C)Oc1ccc(S(=O)(=O)N2CCN(c3cc(OCC(=O)O)cc(-c4cccs4)c3)CC2)cc1 [II-51],640 nM,0.52 µM,–
CC(C)Oc1ccc(S(=O)(=O)N2CCN(c3ccc4ncn(CC(=O)O)c4c3)CC2)cc1 [II-134],2700 nM,8.5 µM,–
CC(C)Oc1ccc(S(=O)(=O)N2CCC(Oc3ccccc3/C=C/C(=O)O)CC2)cc1 [Compound I-7],2400 nM,–,–
CC(C)Oc1ccc(S(=O)(=O)N2CCN(c3cccc(OCC(=O)O)n3)CC2)cc1 [II-11],2300 nM,–,–
CC(C)Oc1ccc(S(=O)(=O)N2CCN(c3ccc(Oc4ccccc4)c(OCC(=O)O)c3)CC2)cc1 [II-79],2300 nM,–,–
COC(=O)Nc1ccc(N2CCN(S(=O)(=O)c3ccc(OC(C)C)cc3)CC2)cc1OCC(=O)O [II-59],4300 nM,–,–
